Target: recombinant human SAE enzyme (Homo sapiens (Human), UniProt Q9UBT2)
Assay: SAE HTRF enzyme assay
Format: biochemical
Summary of the method: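 Sumoylation of Ubc9-GST by SAE was followed at low ATP (0.5 μM), pH 7.5, 24° C. for 105 min. Product was detected by HTRF with antibody pairs against Flag and GST tags.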

[1] = SAE inhibition at compound concentration 0.111 μM
[2] = SAE inhibition, class symbols, legend in nM

recombinant human SAE enzyme, sequence (Q9UBT2 whole entry): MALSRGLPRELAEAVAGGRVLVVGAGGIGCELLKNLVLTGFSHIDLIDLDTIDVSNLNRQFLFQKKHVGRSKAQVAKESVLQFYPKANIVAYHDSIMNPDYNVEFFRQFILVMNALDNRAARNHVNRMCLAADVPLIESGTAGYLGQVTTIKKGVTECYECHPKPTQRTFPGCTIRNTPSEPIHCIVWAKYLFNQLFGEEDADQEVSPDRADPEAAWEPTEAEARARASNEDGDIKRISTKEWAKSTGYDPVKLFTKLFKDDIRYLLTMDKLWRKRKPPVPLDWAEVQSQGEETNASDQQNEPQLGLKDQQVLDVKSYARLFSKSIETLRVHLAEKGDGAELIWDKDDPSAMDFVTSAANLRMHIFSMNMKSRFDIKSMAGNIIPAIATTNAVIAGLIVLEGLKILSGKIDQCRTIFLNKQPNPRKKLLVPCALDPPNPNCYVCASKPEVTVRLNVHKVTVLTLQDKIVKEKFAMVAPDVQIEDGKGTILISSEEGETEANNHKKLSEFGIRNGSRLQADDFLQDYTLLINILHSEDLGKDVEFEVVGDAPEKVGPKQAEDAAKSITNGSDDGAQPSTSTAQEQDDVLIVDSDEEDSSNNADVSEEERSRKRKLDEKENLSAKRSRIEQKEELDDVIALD
recombinant human SAE enzyme, sequence (Q9UBE0 whole entry partner): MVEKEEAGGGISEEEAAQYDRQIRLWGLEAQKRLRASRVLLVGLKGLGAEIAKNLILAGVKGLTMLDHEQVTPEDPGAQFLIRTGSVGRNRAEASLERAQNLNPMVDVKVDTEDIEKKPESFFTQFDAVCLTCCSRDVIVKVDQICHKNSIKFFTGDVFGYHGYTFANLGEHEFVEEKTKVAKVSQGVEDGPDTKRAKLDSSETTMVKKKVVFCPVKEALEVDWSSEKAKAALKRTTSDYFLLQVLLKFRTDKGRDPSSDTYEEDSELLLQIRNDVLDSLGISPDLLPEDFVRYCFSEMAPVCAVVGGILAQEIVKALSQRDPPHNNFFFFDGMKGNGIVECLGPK

SMILES | Percent Inhibition (Concentration 0.111 μM) | IC50 (class symbols A/B/C) [nM] | Percent Inhibition [1] [%] | IC50 [2] [nM]
Cc1oc(C(=O)c2cncnc2N[C@@H]2C[C@H](COS(N)(=O)=O)[C@@H](O)C2)cc1C1OCCc2ccccc21 (single isomer, unassigned) [I-272b, {(1R,2S,4R)-4-[(5-{4-[(1R)-3,4-dihydro-1H-isochromen-1-yl]-5-methyl-2-furoyl}pyrimidin-4-yl)amino]-2-hydroxycyclopentyl}methyl sulfamate or {(1R,2S,4R)-4-[(5-{4-[(1S)-3,4-dihydro-1H-isochromen-1-yl]-5-methyl-2-furoyl}pyrimidin-4-yl)amino]-2-hydroxycyclopentyl}methyl sulfamate] | 97 | < 10 |  | 
NS(=O)(=O)OC[C@H]1C[C@@H](Nc2ncncc2C(=O)c2cc([C@@H]3OCCc4cc(F)c(F)cc43)cs2)C[C@@H]1O (single isomer, unassigned) [I-273, [(1R,2S,4R)-4-{[5-({4-[(1R)-6,7-Difluoro-3,4-dihydro-1H-isochromen-1-yl]-2-thienyl}carbonyl)pyrimidin-4-yl]amino}-2-hydroxycyclopentyl]methyl sulfamate or [(1R,2S,4R)-4-{[5-({4-[(1S)-6,7-Difluoro-3,4-dihydro-1H-isochromen-1-yl]-2-thienyl}carbonyl)pyrimidin-4-yl]amino}-2-hydroxycyclopentyl]methyl sulfamate] | 99 | < 10 |  | 
NS(=O)(=O)OC[C@H]1C[C@@H](Nc2ncncc2C(=O)c2cc(C3NCCc4ccc(Cl)cc43)cs2)C[C@@H]1O (single isomer, unassigned) [I-274a, [(1R,2S,4R)-4-{[5-({4-[(1R)-7-chloro-1,2,3,4-tetrahydroisoquinolin-1-yl]-2-thienyl}carbonyl)pyrimidin-4-yl]amino}-2-hydroxycyclopentyl]methyl sulfamate or [(1R,2S,4R)-4-{[5-({4-[(1S)-7-chloro-1,2,3,4-tetrahydroisoquinolin-1-yl]-2-thienyl}carbonyl)pyrimidin-4-yl]amino}-2-hydroxycyclopentyl]methyl sulfamate] | 98 | < 10 |  | 
NS(=O)(=O)OC[C@H]1C[C@@H](Nc2ncncc2C(=O)c2cc(C3NCCc4ccc(Cl)cc43)cs2)C[C@@H]1O (single isomer, unassigned) [I-274b, [(1R,2S,4R)-4-{[5-({4-[(1R)-7-chloro-1,2,3,4-tetrahydroisoquinolin-1-yl]-2-thienyl}carbonyl)pyrimidin-4-yl]amino}-2-hydroxycyclopentyl]methyl sulfamate or [(1R,2S,4R)-4-{[5-({4-[(1S)-7-chloro-1,2,3,4-tetrahydroisoquinolin-1-yl]-2-thienyl}carbonyl)pyrimidin-4-yl]amino}-2-hydroxycyclopentyl]methyl sulfamate] | 81 | 10 to 100 |  | 
NS(=O)(=O)OC[C@H]1C[C@@H](Nc2ncncc2C(=O)c2cc([C@@H]3OCCc4ccc(Cl)nc43)c(Cl)s2)C[C@@H]1O (single isomer, unassigned) [I-276a, [(1R,2S,4R)-4-{[5-({5-chloro-4-[(8S)-2-chloro-5,8-dihydro-6H-pyrano[3,4-b]pyridin-8-yl]-2-thienyl}carbonyl)pyrimidin-4-yl]amino}-2-hydroxycyclopentyl]methyl sulfamate or [(1R,2S,4R)-4-{[5-({5-chloro-4-[(8R)-2-chloro-5,8-dihydro-6H-pyrano[3,4-b]pyridin-8-yl]-2-thienyl}carbonyl)pyrimidin-4-yl]amino}-2-hydroxycyclopentyl]methyl sulfamate] | 28 | 100 to 1000 |  | 
NS(=O)(=O)OC[C@H]1C[C@@H](Nc2ncncc2C(=O)c2cc([C@@H]3OCCc4ccc(Cl)nc43)c(Cl)s2)C[C@@H]1O (single isomer, unassigned) [I-276b, [(1R,2S,4R)-4-{[5-({5-chloro-4-[(8S)-2-chloro-5,8-dihydro-6H-pyrano[3,4-b]pyridin-8-yl]-2-thienyl}carbonyl)pyrimidin-4-yl]amino}-2-hydroxycyclopentyl]methyl sulfamate or [(1R,2S,4R)-4-{[5-({5-chloro-4-[(8R)-2-chloro-5,8-dihydro-6H-pyrano[3,4-b]pyridin-8-yl]-2-thienyl}carbonyl)pyrimidin-4-yl]amino}-2-hydroxycyclopentyl]methyl sulfamate] | 101 | < 10 |  | 
Cc1sc(C(=O)c2cncnc2N[C@@H]2C[C@H](COS(N)(=O)=O)[C@@H](O)C2)cc1[C@@H]1OCCc2ccc(C3CC3)cc21 (single isomer, unassigned) [I-277a, [(1R,2S,4R)-4-{[5-({4-[(1R)-7-cyclopropyl-3,4-dihydro-1H-isochromen-1-yl]-5-methyl-2-thienyl}carbonyl)pyrimidin-4-yl]amino}-2-hydroxycyclopentyl]methyl sulfamate or [(1R,2S,4R)-4-{[5-({4-[(1S)-7-cyclopropyl-3,4-dihydro-1H-isochromen-1-yl]-5-methyl-2-thienyl}carbonyl)pyrimidin-4-yl]amino}-2-hydroxycyclopentyl]methyl sulfamate] | 100 | < 10 |  | 
Cc1sc(C(=O)c2cncnc2N[C@@H]2C[C@H](COS(N)(=O)=O)[C@@H](O)C2)cc1[C@@H]1OCCc2ccc(C3CC3)cc21 (single isomer, unassigned) [I-277b, [(1R,2S,4R)-4-{[5-({4-[(1R)-7-cyclopropyl-3,4-dihydro-1H-isochromen-1-yl]-5-methyl-2-thienyl}carbonyl)pyrimidin-4-yl]amino}-2-hydroxycyclopentyl]methyl sulfamate or [(1R,2S,4R)-4-{[5-({4-[(1S)-7-cyclopropyl-3,4-dihydro-1H-isochromen-1-yl]-5-methyl-2-thienyl}carbonyl)pyrimidin-4-yl]amino}-2-hydroxycyclopentyl]methyl sulfamate] | 81 | 10 to 100 |  | 
NS(=O)(=O)OC[C@H]1C[C@@H](Nc2ncncc2C(=O)c2cc(C3SCCc4ccc(Cl)cc43)cs2)[C@H](O)[C@@H]1O (single isomer, unassigned) [I-278a, [(1R,2R,3S,4R)-4-{[5-({4-[(1R)-7-chloro-3,4-dihydro-1H-isothiochromen-1-yl]-2-thienyl}carbonyl)pyrimidin-4-yl]amino}-2,3-dihydroxycyclopentyl]methyl sulfamate or [(1R,2R,3S,4R)-4-{[5-({4-[(1S)-7-chloro-3,4-dihydro-1H-isothiochromen-1-yl]-2-thienyl}carbonyl)pyrimidin-4-yl]amino}-2,3-dihydroxycyclopentyl]methyl sulfamate] | 77 | 10 to 100 |  | 
NS(=O)(=O)OC[C@H]1C[C@@H](Nc2ncncc2C(=O)c2cc(C3SCCc4ccc(Cl)cc43)cs2)[C@H](O)[C@@H]1O (single isomer, unassigned) [I-278b, [(1R,2R,3S,4R)-4-{[5-({4-[(1R)-7-chloro-3,4-dihydro-1H-isothiochromen-1-yl]-2-thienyl}carbonyl)pyrimidin-4-yl]amino}-2,3-dihydroxycyclopentyl]methyl sulfamate or [(1R,2R,3S,4R)-4-{[5-({4-[(1S)-7-chloro-3,4-dihydro-1H-isothiochromen-1-yl]-2-thienyl}carbonyl)pyrimidin-4-yl]amino}-2,3-dihydroxycyclopentyl]methyl sulfamate] | 99 | < 10 |  | 
NS(=O)(=O)OC[C@H]1C[C@@H](Nc2ncncc2C(=O)c2cc([C@H]3NCCc4ccccc43)c(Cl)s2)C[C@@H]1O (single isomer, unassigned) [I-279a, [(1R,2S,4R)-4-{[5-({5-chloro-4-[(1S)-1,2,3,4-tetrahydroisoquinolin-1-yl]-2-thienyl}carbonyl)pyrimidin-4-yl]amino}-2-hydroxycyclopentyl]methyl sulfamate or [(1R,2S,4R)-4-{[5-({5-chloro-4-[(1R)-1,2,3,4-tetrahydroisoquinolin-1-yl]-2-thienyl}carbonyl)pyrimidin-4-yl]amino}-2-hydroxycyclopentyl]methyl sulfamate] | 100 | < 10 |  | 
NS(=O)(=O)OC[C@H]1C[C@@H](Nc2ncncc2C(=O)c2cc([C@H]3NCCc4ccccc43)c(Cl)s2)C[C@@H]1O (single isomer, unassigned) [I-279b, [(1R,2S,4R)-4-{[5-({5-chloro-4-[(1S)-1,2,3,4-tetrahydroisoquinolin-1-yl]-2-thienyl}carbonyl)pyrimidin-4-yl]amino}-2-hydroxycyclopentyl]methyl sulfamate or [(1R,2S,4R)-4-{[5-({5-chloro-4-[(1R)-1,2,3,4-tetrahydroisoquinolin-1-yl]-2-thienyl}carbonyl)pyrimidin-4-yl]amino}-2-hydroxycyclopentyl]methyl sulfamate] | 84 | 10 to 100 |  | 
Cc1sc(C(=O)c2cncnc2N[C@@H]2C[C@H](COS(N)(=O)=O)[C@@H](O)C2)cc1[C@@H]1OCOc2ccccc21 (single isomer, unassigned) [I-280a, [(1R,2S,4R)-4-{[5-({4-[(4R)-4H-1,3-benzodioxin-4-yl]-5-methyl-2-thienyl}carbonyl)pyrimidin-4-yl]amino}-2-hydroxycyclopentyl]methyl sulfamate or [(1R,2S,4R)-4-{[5-({4-[(4S)-4H-1,3-benzodioxin-4-yl]-5-methyl-2-thienyl}carbonyl)pyrimidin-4-yl]amino}-2-hydroxycyclopentyl]methyl sulfamate] |  |  | 75 | 10 to 100
Cc1sc(C(=O)c2cncnc2N[C@@H]2C[C@H](COS(N)(=O)=O)[C@@H](O)C2)cc1[C@@H]1OCOc2ccccc21 (single isomer, unassigned) [I-280b, [(1R,2S,4R)-4-{[5-({4-[(4R)-4H-1,3-benzodioxin-4-yl]-5-methyl-2-thienyl}carbonyl)pyrimidin-4-yl]amino}-2-hydroxycyclopentyl]methyl sulfamate or [(1R,2S,4R)-4-{[5-({4-[(4S)-4H-1,3-benzodioxin-4-yl]-5-methyl-2-thienyl}carbonyl)pyrimidin-4-yl]amino}-2-hydroxycyclopentyl]methyl sulfamate] |  |  | 100 | < 10
